Test results published in ChEMBL document CHEMBL1201862, “PubChem BioAssay data set” (2004).
Active and inactive are the calls of the source.

How the values were obtained:
[1] = biological target: E3 ubiquitin-protein ligase Mdm2 (Homo sapiens, UniProt Q00987); test: enhancers of MDM2-luciferase reporter signal, concentration-effect titration, project on inhibitors of MDM2 ubiquitin ligase, cellular assay, luminescent readout, 384-well plate format (AID 1394); assay type: functional;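 note: MDM2 E3 inhibitors raise luminescence so EC50 is for signal enhancement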
[2] = THP-1 cell cytotoxicity, dose response, cytotoxicity control for non-replicating M. tuberculosis project (AID 489025); assay type: functional
Streptococcus = test: Group A Streptococcus viability loss, dose response, counter-screen for streptokinase expression inhibitor project, luminescence, BacTiterGlo (AID 1915); assay type: functional, organism-based;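 note: potency for reduction of bacterial viability or growth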
[3] = tested on: Streptococcus sp. 'group A'; test: growth inhibition of control SK(-) GAS strain, dose response, counter-screen for streptokinase expression inhibitor project, luminescence, kanamycin, BacTiterGlo, confirmation (AID 1900); assay type: functional, organism-based
[4] = Vero E6 cell cytotoxicity, dose response, cytotoxicity control for non-replicating M. tuberculosis project, secondary assay (AID 492998); assay type: functional, VeroE6; details: Vero C1008
cells [5] = assay type: functional
[6] = biological target: Mitochondrial peptide methionine sulfoxide reductase (Bos taurus, UniProt P54149); test: Absorbance-based biochemical high throughput dose response assay for activators of Methionine sulfoxide reductase A (MsrA).; assay type: functional
[7] = M. tuberculosis growth inhibition, HTS (AID 449762); assay type: functional
[8] = biological target: Beta-adrenergic receptor kinase 1 (Homo sapiens, UniProt P25098); test: aptamer displacement from bead-bound GRK2 – biochemical, cherry pick 1, bead flow cytometry, dose response (AID 504500)
Chain of Beta-adrenergic receptor kinase 1 (P25098 whole entry): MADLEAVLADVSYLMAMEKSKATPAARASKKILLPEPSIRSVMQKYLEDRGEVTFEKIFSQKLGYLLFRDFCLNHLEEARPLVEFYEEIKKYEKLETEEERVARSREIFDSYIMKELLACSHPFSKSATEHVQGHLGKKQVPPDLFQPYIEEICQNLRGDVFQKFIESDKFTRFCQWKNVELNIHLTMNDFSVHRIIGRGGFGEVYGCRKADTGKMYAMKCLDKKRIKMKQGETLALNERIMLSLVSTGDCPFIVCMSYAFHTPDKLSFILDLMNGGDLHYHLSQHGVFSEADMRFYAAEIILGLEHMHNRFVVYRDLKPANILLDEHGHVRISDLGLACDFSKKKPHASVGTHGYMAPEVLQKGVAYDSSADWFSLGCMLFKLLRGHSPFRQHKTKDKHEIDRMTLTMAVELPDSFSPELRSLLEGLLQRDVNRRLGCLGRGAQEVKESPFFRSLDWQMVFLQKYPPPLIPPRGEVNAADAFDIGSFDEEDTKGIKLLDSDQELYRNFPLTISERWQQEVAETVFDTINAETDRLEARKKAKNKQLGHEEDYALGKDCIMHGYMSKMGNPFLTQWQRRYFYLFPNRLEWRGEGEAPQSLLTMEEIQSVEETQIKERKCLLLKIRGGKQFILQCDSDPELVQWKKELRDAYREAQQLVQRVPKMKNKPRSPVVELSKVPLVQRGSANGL

[9] = biological target: Glutathione-S-transferase (Schistosoma japonicum, UniProt Q26513); test: biotin-GST/anti-GST TR-FRET signal inhibitors, dose response, artefact control for Vif-APOBEC3G degradation inhibitor project, biochemical (AID 1117362); assay type: functional
Chain of Glutathione-S-transferase (Q26513 whole entry): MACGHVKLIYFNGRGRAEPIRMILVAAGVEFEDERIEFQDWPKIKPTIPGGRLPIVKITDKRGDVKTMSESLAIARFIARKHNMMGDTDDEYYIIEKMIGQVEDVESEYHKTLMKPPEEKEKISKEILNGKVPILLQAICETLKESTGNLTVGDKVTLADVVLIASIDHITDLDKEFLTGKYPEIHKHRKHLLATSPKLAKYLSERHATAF

[10] = biological target: T1, Voltage-gated N-type calcium channel alpha-1B subunit/Amyloid beta A4 precursor protein-binding family A member 1 (Homo sapiens, UniProt Q00975+Q02410); assay type: protein assay
T1 sequence (Q00975 whole entry): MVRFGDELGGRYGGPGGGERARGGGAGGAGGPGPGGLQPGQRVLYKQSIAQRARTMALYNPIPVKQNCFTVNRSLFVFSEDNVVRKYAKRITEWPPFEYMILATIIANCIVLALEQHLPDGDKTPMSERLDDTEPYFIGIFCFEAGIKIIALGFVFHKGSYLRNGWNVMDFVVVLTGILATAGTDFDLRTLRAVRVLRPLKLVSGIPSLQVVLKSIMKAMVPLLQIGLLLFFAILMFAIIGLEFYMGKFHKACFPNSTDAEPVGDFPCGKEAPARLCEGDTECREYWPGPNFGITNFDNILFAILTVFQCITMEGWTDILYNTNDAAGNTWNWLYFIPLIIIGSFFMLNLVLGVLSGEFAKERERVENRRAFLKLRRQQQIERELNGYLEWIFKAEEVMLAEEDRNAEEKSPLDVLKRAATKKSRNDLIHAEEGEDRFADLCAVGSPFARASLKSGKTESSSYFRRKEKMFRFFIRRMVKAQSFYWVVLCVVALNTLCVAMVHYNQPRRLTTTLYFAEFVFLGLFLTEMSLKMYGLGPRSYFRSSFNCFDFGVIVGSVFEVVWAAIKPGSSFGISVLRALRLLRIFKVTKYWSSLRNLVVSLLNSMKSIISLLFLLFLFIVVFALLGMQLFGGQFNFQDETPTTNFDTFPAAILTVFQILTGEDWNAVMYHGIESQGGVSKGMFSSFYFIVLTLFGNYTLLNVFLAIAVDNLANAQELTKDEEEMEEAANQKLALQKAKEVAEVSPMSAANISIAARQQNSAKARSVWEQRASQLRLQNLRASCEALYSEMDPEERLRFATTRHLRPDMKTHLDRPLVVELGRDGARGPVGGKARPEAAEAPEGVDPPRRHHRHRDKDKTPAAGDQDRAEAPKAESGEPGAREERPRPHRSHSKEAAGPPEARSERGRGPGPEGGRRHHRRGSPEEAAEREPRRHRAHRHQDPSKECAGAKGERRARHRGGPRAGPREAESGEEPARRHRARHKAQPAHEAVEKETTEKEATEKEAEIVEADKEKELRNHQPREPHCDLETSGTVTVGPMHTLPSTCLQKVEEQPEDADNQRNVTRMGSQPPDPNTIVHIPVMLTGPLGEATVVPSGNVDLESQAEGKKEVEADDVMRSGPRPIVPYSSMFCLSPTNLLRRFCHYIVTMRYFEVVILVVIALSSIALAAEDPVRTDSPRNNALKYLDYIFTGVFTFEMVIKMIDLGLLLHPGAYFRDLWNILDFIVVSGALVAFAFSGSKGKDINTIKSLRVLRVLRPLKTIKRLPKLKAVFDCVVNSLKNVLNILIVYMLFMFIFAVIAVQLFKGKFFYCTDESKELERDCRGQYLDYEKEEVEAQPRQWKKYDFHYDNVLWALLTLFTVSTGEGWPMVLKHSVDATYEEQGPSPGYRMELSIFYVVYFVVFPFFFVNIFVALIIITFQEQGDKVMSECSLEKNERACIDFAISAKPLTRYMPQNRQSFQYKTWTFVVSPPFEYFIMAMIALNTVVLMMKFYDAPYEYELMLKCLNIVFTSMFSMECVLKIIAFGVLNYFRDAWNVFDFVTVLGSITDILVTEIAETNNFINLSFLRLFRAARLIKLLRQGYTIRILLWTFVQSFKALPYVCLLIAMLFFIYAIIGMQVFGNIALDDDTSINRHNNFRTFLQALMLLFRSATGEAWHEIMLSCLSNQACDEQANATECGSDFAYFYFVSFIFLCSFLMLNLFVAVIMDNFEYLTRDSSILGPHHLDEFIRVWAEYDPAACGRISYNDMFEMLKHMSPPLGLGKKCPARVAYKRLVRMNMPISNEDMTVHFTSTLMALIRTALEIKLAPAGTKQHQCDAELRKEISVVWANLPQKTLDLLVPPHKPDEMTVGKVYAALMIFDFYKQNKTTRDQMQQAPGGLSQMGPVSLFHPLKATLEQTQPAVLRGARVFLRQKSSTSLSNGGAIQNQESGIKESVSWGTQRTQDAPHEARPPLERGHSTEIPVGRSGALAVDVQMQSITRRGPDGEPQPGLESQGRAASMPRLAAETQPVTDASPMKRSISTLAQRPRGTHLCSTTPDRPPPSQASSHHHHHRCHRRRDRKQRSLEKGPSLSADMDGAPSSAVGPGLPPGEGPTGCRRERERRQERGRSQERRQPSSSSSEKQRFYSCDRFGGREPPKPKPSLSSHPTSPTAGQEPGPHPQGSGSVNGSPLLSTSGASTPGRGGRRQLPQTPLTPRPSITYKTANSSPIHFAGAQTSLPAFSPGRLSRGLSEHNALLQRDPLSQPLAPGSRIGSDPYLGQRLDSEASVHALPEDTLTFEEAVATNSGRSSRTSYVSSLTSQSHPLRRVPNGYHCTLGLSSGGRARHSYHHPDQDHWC
T1 sequence (Q02410 whole entry): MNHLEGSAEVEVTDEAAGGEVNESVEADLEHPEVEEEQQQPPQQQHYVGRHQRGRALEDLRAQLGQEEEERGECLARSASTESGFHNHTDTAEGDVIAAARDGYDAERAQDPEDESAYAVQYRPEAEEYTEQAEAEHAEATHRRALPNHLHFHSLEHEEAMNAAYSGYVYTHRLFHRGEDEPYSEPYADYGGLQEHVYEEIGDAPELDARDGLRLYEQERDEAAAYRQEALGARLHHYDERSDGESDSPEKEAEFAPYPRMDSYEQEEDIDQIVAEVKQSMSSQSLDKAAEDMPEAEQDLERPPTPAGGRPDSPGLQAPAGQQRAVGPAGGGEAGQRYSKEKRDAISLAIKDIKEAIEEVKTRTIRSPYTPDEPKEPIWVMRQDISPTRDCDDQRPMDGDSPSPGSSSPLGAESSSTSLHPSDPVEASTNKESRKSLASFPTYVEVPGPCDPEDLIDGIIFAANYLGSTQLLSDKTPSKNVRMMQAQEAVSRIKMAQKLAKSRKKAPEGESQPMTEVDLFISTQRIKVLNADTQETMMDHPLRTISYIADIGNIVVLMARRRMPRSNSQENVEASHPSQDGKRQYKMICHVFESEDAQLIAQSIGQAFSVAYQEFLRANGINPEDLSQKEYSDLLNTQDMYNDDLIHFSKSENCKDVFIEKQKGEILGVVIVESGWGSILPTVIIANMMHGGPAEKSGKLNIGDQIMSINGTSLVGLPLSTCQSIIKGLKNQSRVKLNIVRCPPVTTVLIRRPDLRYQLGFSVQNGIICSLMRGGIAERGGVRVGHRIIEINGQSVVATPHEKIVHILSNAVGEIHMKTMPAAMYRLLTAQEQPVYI

ORF 73 = ORF 73 (Human herpesvirus 8, UniProt O40947); test: inhibitors of C-LANA binding to LBS DNA, dose response, biochemical, fluorescence polarization, cherry-picked samples (AID 504725); design: species or system Human gammaherpesvirus 8;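 note: fluorescence polarization of a labeled DNA duplex reporting LANA DNA binding; potency is for inhibitors that block LANA binding to the DNA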
[11] = biological target: Induced myeloid leukemia cell differentiation protein Mcl-1 (Homo sapiens, UniProt Q07820); assay type: functional
[12] = biological target: Bifunctional protein GlmU (Mycobacterium tuberculosis, UniProt P9WMN3); test: Inhibitors of Mycobacterial Glucosamine-1-phosphate acetyl transferase (GlmU). Secondary screen.; design: species or system Mycobacterium tuberculosis H37Rv
[13] = biological target: T1, Voltage-gated N-type calcium channel alpha-1B subunit/Amyloid beta A4 precursor protein-binding family A member 1; assay type: protein assay; remark: listed apart in the source
[14] = biological target: Eukaryotic translation initiation factor 4E (Mus musculus, UniProt P63073); test: eIF4E–eIF4G protein interaction inhibitors, dose response, biochemical, TR-FRET (AID 855); assay type: functional;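 note: potency for disrupting eIF4E binding to eIF4GI seen as loss of FRET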
SUMO-activating enzyme [15] = biological target: T2, SUMO-activating enzyme (Homo sapiens, UniProt Q9UBT2); test: SUMOylation inhibitor hit validation, confirmation, SUMOylation inhibitor project, biochemical, AlphaScreen (AID 2018); assay type: functional
T2 sequence (Q9UBE0 whole entry): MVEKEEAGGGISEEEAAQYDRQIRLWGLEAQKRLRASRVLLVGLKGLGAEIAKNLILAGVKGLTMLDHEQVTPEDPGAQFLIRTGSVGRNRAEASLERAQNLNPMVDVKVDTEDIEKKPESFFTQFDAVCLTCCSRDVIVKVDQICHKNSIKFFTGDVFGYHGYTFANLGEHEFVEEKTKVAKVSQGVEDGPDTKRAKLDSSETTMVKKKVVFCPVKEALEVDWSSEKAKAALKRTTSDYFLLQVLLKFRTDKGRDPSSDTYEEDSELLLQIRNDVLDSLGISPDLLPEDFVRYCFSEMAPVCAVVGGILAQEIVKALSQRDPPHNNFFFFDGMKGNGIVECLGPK
T2 sequence (Q9UBT2 whole entry): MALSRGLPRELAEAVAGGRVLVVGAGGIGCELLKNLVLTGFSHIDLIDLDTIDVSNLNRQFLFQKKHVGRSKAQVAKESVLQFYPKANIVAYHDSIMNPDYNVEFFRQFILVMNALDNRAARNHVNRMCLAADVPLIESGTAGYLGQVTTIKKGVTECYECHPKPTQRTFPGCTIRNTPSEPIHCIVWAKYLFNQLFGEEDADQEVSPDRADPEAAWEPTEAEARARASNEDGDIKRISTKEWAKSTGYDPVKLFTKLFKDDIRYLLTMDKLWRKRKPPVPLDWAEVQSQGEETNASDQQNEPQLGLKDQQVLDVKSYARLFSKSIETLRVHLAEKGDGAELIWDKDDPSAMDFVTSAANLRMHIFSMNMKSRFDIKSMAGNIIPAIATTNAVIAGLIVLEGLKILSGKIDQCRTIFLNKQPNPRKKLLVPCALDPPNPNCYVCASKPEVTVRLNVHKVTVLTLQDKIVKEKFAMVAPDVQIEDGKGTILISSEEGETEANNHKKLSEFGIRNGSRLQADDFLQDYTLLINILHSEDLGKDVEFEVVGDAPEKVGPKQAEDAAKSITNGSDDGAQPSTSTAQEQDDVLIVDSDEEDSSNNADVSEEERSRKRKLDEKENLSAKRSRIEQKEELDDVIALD

Large T antigen = Large T antigen (Simian virus 40, UniProt P03070); assay type: functional, Betapolyomavirus macacae;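 note: Confirmatory-stage PubChem screen for compounds that inhibit SV40 T antigen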
SUMO-activating enzyme [16] = biological target: T2, SUMO-activating enzyme; test: inhibitors of in vitro SUMOylation cascade, primary screen, biochemical, HTRF, uHTS (AID 2006); assay type: protein-complex assay
[17] = biological target: Heat shock protein HSP 90-alpha (Homo sapiens, UniProt P07900); test: Luminescence-based dose response biochemical high throughput screening assay for inhibitors of the Heat Shock Protein 90 (HSP90). [Related pubchem assays: 1831 (Summary AID.), 1846 (Confirmation screen.), 1789 (Primary screen.)]
[18] = Vero cell cytotoxicity, dose response, cytotoxicity control for Vif-APOBEC3G degradation inhibitor project, Vero cells (AID 1117358); assay type: functional; details: Human immunodeficiency virus 1, Vero
[19] = P. falciparum Dd2 growth inhibitors, dose response, SYBR Green, dry powder samples, set 9 (AID 1159568); assay type: functional, cell-based
[20] = HepG2 cell cytotoxicity, dose response, cytotoxicity control, cherry-picked samples (AID 1159577); assay type: functional, cell-based
[21] = HepG2 cell cytotoxicity, dose response, cytotoxicity control, plate reader, dry powder samples (AID 1159569); assay type: functional, cell-based;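 note: inhibitor potency with signal falling toward the positive control level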
[22] = P. falciparum 3D7-ScDHODH growth inhibitors, dose response, SYBR Green, dry powder samples (AID 1159570); assay type: functional, cell-based;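 note: parasite growth measured after 72 hours of compound exposure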
[23] = P. falciparum ATP4 D1247Y mutant growth inhibitors, dose response, NITD609-resistant line, SYBR Green, dry powder (AID 1159571); assay type: functional, cell-based;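 note: parasites synchronized at ring stage by sorbitol before testing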
[24] = P. falciparum Dd2 growth inhibitors, dose response, SYBR Green, cherry-picked samples (AID 1159567); assay type: functional, cell-based
[25] = P. falciparum Dd2 growth inhibitors, dose response, SYBR Green, dry powder samples (AID 1159566); assay type: functional, cell-based;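 note: potency for growth inhibition with lower SYBR green DNA signal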
[26] = Mtb BioA inhibitors by displacement, dose response, biochemical, coupled fluorescence displacement, 20-point, dry powder (AID 743357); assay type: functional
[27] = HepG2 cell cytotoxicity, dose response, cytotoxicity control, luminescence, dry powder, set 9 (AID 743358); assay type: functional, cell-based
[28] = microbe, parasite or virus in culture; assay type: functional; details: Mycobacterium tuberculosis
[29] = Dose-response inhibition of insulin secretion in a rat insulinoma line at 5 mM glucose (AID 1117331); assay type: functional, cell-based; details: INS-1E
[30] = half-maximal inhibitory concentration for glucagon-like peptide-1 release, STC-1 cell line, dose-response (AID 1117345); assay type: functional, cell-based
[31] = Glucagon-like peptide 1 release potency, NCI-H716 cell line, dose-response, half-maximal inhibitory concentration (AID 1117344); assay type: functional, cell-based
cells [32] = assay type: functional, cell-based; details: INS-1E
Bcl-2-related protein A1 [33] = biological target: T3, Bcl-2-related protein A1 (Mus musculus, UniProt Q07440); test: Bfl-1 inhibitors blocking BH3 peptide binding, confirmation, biochemical, TR-FRET, mouse Bfl-1 (AID 621);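 note: TR-FRET binding of GST-Bfl-1 to FITC-labelled Bid peptide via terbium antibody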
T3 sequence (Q07440 whole entry): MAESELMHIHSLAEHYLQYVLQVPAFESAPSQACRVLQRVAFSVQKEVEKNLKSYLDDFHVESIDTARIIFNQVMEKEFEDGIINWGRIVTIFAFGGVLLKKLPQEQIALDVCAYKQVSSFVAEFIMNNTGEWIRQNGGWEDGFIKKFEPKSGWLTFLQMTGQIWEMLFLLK

Bcl-2-related protein A1 [34] = biological target: T3, Bcl-2-related protein A1; test: Bfl-1 inhibitors, primary screen, biochemical, fluorescence polarization, FITC-Bid, mouse (AID 432)
[35] = SNU-C1 cell viability reduction, dose response, CellTiter-Glo luminescence (AID 1117323); assay type: functional, cell-based
[36] = biological target: Intestinal-type alkaline phosphatase (Homo sapiens, UniProt P09923); test: inhibition of human intestinal alkaline phosphatase – biochemical, dose response (AID 488876); assay type: functional
Cytochrome P450 2D6 = Cytochrome P450 2D6 (Homo sapiens, UniProt P10635);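 note: CYP2D6 member of a cytochrome P450 panel assay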
[37] = RKO cell viability reduction, dose response, CellTiter-Glo luminescence (AID 1117322); assay type: functional
[38] = cytotoxicity toward HCT116 cells – cell-based, CellTiter-Glo luminescence, IC50, dose response (AID 1117332); assay type: functional; details: HCT-116
[39] = cytotoxicity toward Colo320 cells – cell-based, CellTiter-Glo luminescence, IC50, dose response (AID 1117334); assay type: functional; details: COLO 320
[40] = biological target: T4, Alkaline phosphatase, tissue-nonspecific isozyme (Homo sapiens, UniProt P05186); test: TNAP enzyme inhibition by screening hits, dose response, selectivity assay for mouse IAP inhibitor project, biochemical, human TNAP, uHTS hits (AID 488906); assay type: functional
T4 sequence (P05186 whole entry): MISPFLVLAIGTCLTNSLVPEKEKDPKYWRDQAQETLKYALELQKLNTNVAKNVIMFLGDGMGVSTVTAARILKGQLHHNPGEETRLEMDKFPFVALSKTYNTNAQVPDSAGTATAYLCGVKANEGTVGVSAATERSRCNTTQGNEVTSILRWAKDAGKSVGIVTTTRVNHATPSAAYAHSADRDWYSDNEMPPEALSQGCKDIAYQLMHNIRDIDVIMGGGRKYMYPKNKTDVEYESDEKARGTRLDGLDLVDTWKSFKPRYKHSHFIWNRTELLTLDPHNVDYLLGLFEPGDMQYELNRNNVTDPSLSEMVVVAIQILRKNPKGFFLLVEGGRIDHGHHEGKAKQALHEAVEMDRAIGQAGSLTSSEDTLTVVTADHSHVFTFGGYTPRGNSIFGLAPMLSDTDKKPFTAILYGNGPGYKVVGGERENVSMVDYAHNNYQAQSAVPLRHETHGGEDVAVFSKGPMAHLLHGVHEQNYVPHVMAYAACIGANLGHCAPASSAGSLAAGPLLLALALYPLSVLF

Cytochrome P450 2C19 = Cytochrome P450 2C19 (Homo sapiens, UniProt P33261); test: Cytochrome panel assay with activity outcomes. Panel member name: p450-cyp2c19 Compounds with AC50 equal or less than 10 uM are considered active; assay type: functional; details: read-out: AC50
[41] = cytotoxicity toward HT-29 cells – cell-based, CellTiter-Glo luminescence, IC50, dose response (AID 1117330); assay type: functional
[42] = HCT116 cell viability decrease, GSK3B pretreatment – CellTiter-Glo, IC50, dose response (AID 1117339); assay type: functional; details: HCT-116
[43] = CellTiter-Glo luminescent dose response of DLD-1 viability loss (AID 1117352); assay type: functional
[44] = biological target: Intestinal-type alkaline phosphatase (Mus musculus, UniProt P24822); test: PubChem AID 488785; assay type: functional
[45] = Concentration-dependent survival of SW480 colon cancer line, luminescence detection with CellTiter-Glo, half-maximal inhibitory concentration (AID 1117338); assay type: functional
[46] = biological target: Lysine-specific demethylase 4C (Homo sapiens, UniProt Q9H3R0); test: GASC-1 (JMJD2C) histone demethylase inhibitors, dose response, biochemical, DELFIA europium, cherry-picked samples (AID 488835); assay type: functional

O=C(Nc1nnc(-c2ccc(Cl)cc2)o1)c1ccccc1Br
EC50 [1]: 12.8 µM (not active)
CC50 [2]: 37 µM (active)
EC50 (Streptococcus): 5.91 µM (active)
EC50 [3]: 3.15 µM (active)
CC50 [4]: 18 µM (active)
IC50 (cells [5]): 3.74 µM (active)

Cc1ccc2[nH]c3c(c2c1)CN(C(=O)CN1CCN(c2ccccn2)CC1)CC3
EC50 [6]: > 104 µM (inactive)
IC50 [7]: > 100 µM (active)

C=C(C)C(=O)Nc1cccc(C2=NOC3(C2)C[C@@H](C(N)=O)N(C(=O)c2cc([N+](=O)[O-])cc([N+](=O)[O-])c2)C3)c1 (some centres not stated)
EC50 [8]: 10.6 µM (inactive)
IC50 [9]: > 100 µM (active)

Cc1ccc(NC(=O)CN2C(=O)N/C(=C/c3cccn3-c3ccc(C(=O)O)cc3)C2=O)cc1
IC50 [10]: 10.5 µM (active)
AC50 (ORF 73): 33.9 µM (active)
IC50 [11]: 0.996 µM (not active)
IC50 [12]: 29.4 µM (active)
IC50 [13]: 28.9 µM (active)
IC50 [14]: 9.54 µM (active)
IC50 (SUMO-activating enzyme [15]): 1.09 µM (active)
IC50 (Large T antigen): 24.7 µM (active)
EC50 [8]: 1.21 µM (active)
IC50 (SUMO-activating enzyme [16]): 12 µM (active)

Cc1nc(NC(=O)c2ccc(F)cc2)sc1C(=O)Nc1ccc2c(c1)CCC2
IC50 [17]: 3.84 µM (active)

O=C(NCCc1ccc(Cl)cc1)C1CCN(C(=O)c2sccc2-n2cccc2)CC1
CC50 [18]: > 40 µM (active)

COc1ccc2c3c([nH]c2c1)[C@H](CO)N(Cc1ccccc1)CC31CN(C(=O)c2ccccn2)C1
AC50 [19]: 6.79 µM (active)

C[C@H]1CN([C@@H](C)CO)C(=O)c2c(c3ccccc3n2C)-c2ccccc2CO[C@H]1CN(C)Cc1ccc(-c2ccccc2)cc1
AC50 [20]: > 39 µM (inactive)
AC50 [21]: 28.9 µM (active)
AC50 [22]: 3.14 µM (active)
AC50 [23]: 2.1 µM (active)
AC50 [24]: 2.64 µM (active)
AC50 [25]: 1.54 µM (active)

CC(C)NC(=O)N1CC[C@@H]2[C@@H](CO)N(C)c3ccc(-c4cccc(F)c4)cc3[C@@H]21
AC50 [26]: 11.8 µM (active)
AC50 [27]: > 52 µM (inactive)

Clc1ccc2c(c1)CCc1cccnc1C2=C1CCNCC1 [DESLORATADINE]
CC50 [28]: 32.9 µM (active)
IC50 [29]: 7.11 µM (inactive)
IC50 [30]: > 40 µM (inactive)
IC50 [31]: > 40 µM (inactive)
IC50 (cells [32]): > 33.3 µM (inactive)

CC(C)[C@H]1C(=O)N2CCC[C@H]2[C@]2(O)O[C@](NC(=O)[C@@H]3C=C4c5cccc6[nH]cc(c56)C[C@H]4N(C)C3)(C(C)C)C(=O)N12 [ERGOCORNINE]
IC50 (Bcl-2-related protein A1 [33]): > 100 µM (not active)
IC50 (Bcl-2-related protein A1 [34]): > 100 µM (not active)

N#CC(C#N)=Cc1ccc(O)c(O)c1 [TYRPHOSTIN 23]
IC50 [35]: > 20 µM (inactive)
IC50 [36]: > 100 µM (inactive)
AC50 (Cytochrome P450 2D6): 20 µM (inconclusive)
IC50 [37]: 3.78 µM (active)
IC50 [38]: > 20 µM (inactive)
IC50 [39]: 6.74 µM (inactive)
IC50 [40]: 9.97 µM (active)
AC50 (Cytochrome P450 2C19): 15.8 µM (inconclusive)
IC50 [41]: > 20 µM (inactive)
IC50 [42]: > 20 µM (inactive)
IC50 [43]: > 20 µM (inactive)
IC50 [44]: 4.22 µM (active)
IC50 [45]: > 20 µM (inactive)
AC50 [46]: 10.8 µM (active)
